{"source": "patent US6680025B2", "about": "“Device and method for photoactivation” (Cerus Corporation, priority 1989, dated 2004)", "tested_on": "HIV 115-mer PCR product", "experiment": "Photoproduct sterilization of PCR (HIV 115-mer carryover)", "assay_type": "biochemical", "conditions": "30 cycles; for sterilization of PCR (Example 52): 100 μl/ml", "text": "FIG. 36 describes a series of oligonucleotides that can be used with the PCR amplification technique. Two primers are described (SK-38 and SK-39) that are complementary to a segment of the HIV genome. Each primer is complementary to sequences at the […] of one of each of two strands of a 115 base pair long segment of the HIV genome. In addition, FIG. 36 describes a crosslinkable probe molecule which is capable of hybridizing and crosslinking to one strand of the 115-mer PCR product. Repeated thermal cycling of SK-38 and SK-39 in the presence of Taq polymerase, appropriate reagents, and a target polynucleotide containing at least the 115-mer segment bounded by SK-38/SK-39, will result in the synthesis of both strands of the 115-mer. Therefore, PCR amplification will occur, with both strands of the 115-mer accumulating geometrically. This is in contrast to the oligonuceleotides described in FIG. 26. Only one primer (SK-39) is described in FIG. 26 which is capable hybridizing to the 3′ end of the 71-mer target oligonucleotide (HRI-55). The lack of a second primer in the system of oligonucleotides described by FIG. 26 prevents this system from being amplified geometrically. Repeated thermal cycling of HRI-55 and SK-39 in the presence of Taq polymerase and appropriate reagents will result in the linear accumulation of the complement of HRI-55.\n[…] Aliquots of AMDIIIP photoproduct and the unirradiated compound were added (by pipetting) at 50, 100, 200 and 300 μg/ml to 1 μl aliquots of a 10^6 delution of PCR product copies. PCR product was provided by a) preparing template, b) providing template, c) providing PCR reagents, d) providing polymerase, e) mixing PCR reagents, template, and polymerase to initiate PCR, f) cycling to synthesize PCR product.\nStep a): Template Preparation. The templates were derived from actual patient samples. Ficoll-Hypaque separated peripheral blood mononuclear cells (PBMCs) are prepared from individuals enrolled in a longitudinal AIDS study. Approximately 1×10^6 cells are added to 10 ml of RPMI containing 10% fetal calf serum. The cells are pelleted by centrifugation at 20×g for 5 minutes and washed twice with 10 ml PBS. The cell pellet is resuspended in a solution of 50 mM KCl, 10 mM Tris-HCl (pH 8.3), 2.5 mM MgCl2 and subsequently lysed by the addition of 0.5% Tween 20 and 0.5% NP40. Samples are digested with 60 μg/ml proteinase K (Sigma) for 1 hour at 60° C. […]\nAgain, to evaluate the efficacy of this method of sterilization, a subsequent polymerase chain reaction was carried out for 30 cycles in the presence of α-^32P-dCTP. PCR product was then quantitated by running gels (see above), cutting the bands (detected by autoradiography) and counting the bands on a commercial scintillation counter. […]", "data": [{"smiles": "Cc1oc2ccc3c(C)cc(=O)oc3c2c1CN", "note": "[AMDMIP, 4′-Aminomethyl-4,5′-dimethylisopsoralen]", "values": [{"measurement": "sterilization of PCR (Example 52)", "setting": "AMDMIP irradiated in CE-III device 15 minutes", "value": "extensive sterilization"}, {"measurement": "sterilization of PCR (Example 52)", "setting": "AMDMIP irradiated in PTI device 15 minutes", "value": "little sterilization"}, {"measurement": "sterilization of PCR (Example 52)", "setting": "unirradiated AMDMIP", "value": "PCR product is clearly evident"}, {"measurement": "sterilization of PCR", "setting": "unirradiated compound at 50, 100, 200, 300 μg/ml", "value": "no sterilization"}]}]}
